For 1 compound, Km results are on record in article PMC9459109, “A higher spectral range of beetle bioluminescence with infraluciferin” (Frontiers in Bioengineering and Biotechnology, 2022).

Common to all, as to settings: saturating DL-infraluciferin (DL-iLH2) as co-substrate
One assay concerns T1, Eluc.
T1 construct: 10X N-terminal His tag, pET16b, E. coli BL21(DE3) pLysS, Ni-NTA purified; amplified from plasmid pLR6-Eluc
In words: bioluminescence, ATP […] to […], Hanes-Woolf plot. It is filed as biochemical, Pyrearinus termitilluminans.

The target in assay [1] is WT Fluc (Photinus pyralis firefly luciferase, Ppy Fluc) (Photinus pyralis, UniProt P08659).
WT Fluc (Photinus pyralis firefly luciferase, Ppy Fluc) (Photinus pyralis, UniProt P08659), sequence (P08659 whole entry): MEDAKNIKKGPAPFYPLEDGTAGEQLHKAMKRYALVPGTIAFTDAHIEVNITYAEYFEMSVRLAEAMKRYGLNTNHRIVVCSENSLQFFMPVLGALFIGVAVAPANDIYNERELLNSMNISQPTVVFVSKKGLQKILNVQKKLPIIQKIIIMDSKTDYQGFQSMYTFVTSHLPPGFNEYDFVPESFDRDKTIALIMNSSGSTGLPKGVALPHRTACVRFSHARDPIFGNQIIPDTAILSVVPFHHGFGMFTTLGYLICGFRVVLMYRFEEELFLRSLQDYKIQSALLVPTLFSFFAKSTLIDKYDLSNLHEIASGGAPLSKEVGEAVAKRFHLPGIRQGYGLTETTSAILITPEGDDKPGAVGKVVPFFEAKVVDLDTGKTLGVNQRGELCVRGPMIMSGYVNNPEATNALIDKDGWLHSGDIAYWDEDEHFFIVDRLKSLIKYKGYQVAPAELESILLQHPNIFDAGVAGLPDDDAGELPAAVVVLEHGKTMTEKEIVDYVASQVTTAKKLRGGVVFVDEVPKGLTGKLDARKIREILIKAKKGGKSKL
Assay [2] deals with WT Fluc (Photinus pyralis firefly luciferase, Ppy Fluc) (Photinus pyralis, UniProt P08659, E354R/D357Y).
WT Fluc (Photinus pyralis firefly luciferase, Ppy Fluc) (Photinus pyralis, UniProt P08659, E354R/D357Y), sequence (P08659 whole entry E354R/D357Y): as the sequence (P08659 whole entry) above, with E354R, D357Y counted along it

With `Nc1ncnc2c1ncn2[C@@H]1O[C@H](COP(=O)(O)OP(=O)(O)OP(=O)(O)O)[C@@H](O)[C@H]1O` [ATP], the Km in the assay with Eluc is 200 µM; in assay [1], 160 µM; in assay [2], “Kms for ATP in the presence of DL-iLH2 (ATP(iLH2))”.
